{"source": "patent US20230398130A1", "about": "“METHODS AND COMPOSITIONS FOR DIFFERENTIATING STEM CELLS” (Massachusetts Institute of Technology, priority 2020, published 2023)", "key": {"ISC-enriched organoids [1]": {"tested_on": "ISC-enriched organoids", "test": "Primary screen, 384-well 2.5-D organoid differentiation (ENR+CD, 6 days): basal lysozyme secretion (LYZ.NS)", "type": "cell-based, murine", "conditions": "for Dose.FC.LYZ.NS / Z.LYZ.NS / SSMD.LYZ.NS: primary screen; for Dose.FC.LYZ.NS: FC vs plate median; for Z.LYZ.NS: standard z score; for SSMD.LYZ.NS: strictly standardized mean difference", "description": "High-throughput screening."}, "ISC-enriched organoids [2]": {"tested_on": "ISC-enriched organoids", "test": "Primary screen, 384-well 2.5-D organoid differentiation (ENR+CD, 6 days, Target Selective Inhibitor Library, vs whole-plate median): ATP (CellTiter-Glo 3D, CTG)", "conditions": "for Dose.FC.CTG: FC vs plate median; for SSMD.CTG: strictly standardized mean difference"}, "[3]": {"conditions": "Dose 0.08 uM, standard z score of FC"}, "[4]": {"conditions": "Dose 0.40 uM, standard z score of FC"}, "[5]": {"conditions": "Dose 2.00 uM, standard z score of FC"}, "[6]": {"conditions": "Dose 10.00 uM, standard z score of FC"}}, "note": "Structures can show the parent of a compound that is named as a salt."}
{"compound": "VU 0357121", "values": [{"measurement": "Z.LYZ.NS (standard z score)", "setting": "ISC-enriched organoids [1]; dose 0.08 uM", "result": 0.686}, {"measurement": "Z.LYZ.NS (standard z score)", "setting": "ISC-enriched organoids [1]; dose 0.40 uM", "result": "−0.090"}, {"measurement": "Z.LYZ.NS (standard z score)", "setting": "ISC-enriched organoids [1]; dose 2.00 uM", "result": 0.261}, {"measurement": "Z.CTG (standard z score)", "setting": "ISC-enriched organoids [2]; dose 0.08 uM", "result": 0.438}, {"measurement": "Z.CTG (standard z score)", "setting": "ISC-enriched organoids [2]; dose 0.40 uM", "result": 0.352}, {"measurement": "Z.CTG (standard z score)", "setting": "ISC-enriched organoids [2]; dose 2.00 uM", "result": 0.029}, {"measurement": "Z.CTG (standard z score)", "setting": "ISC-enriched organoids [2]; dose 10.00 uM", "result": "−0.141"}]}
{"compound": "Cc1ccc(NC(=O)c2ccc(CN3CCN(C)CC3)cc2)cc1Nc1nccc(-c2cccnc2)n1", "note": "[Imatinib (STI571)]", "values": [{"measurement": "Dose.FC.LYZ.NS", "setting": "ISC-enriched organoids [1]; Dose 0.08 uM", "result": 0.033, "unit": "log 2 fold change"}, {"measurement": "Z.LYZ.NS", "setting": "ISC-enriched organoids [1]; Dose 0.08 uM", "result": 0.284}, {"measurement": "Dose.FC.LYZ.NS", "setting": "ISC-enriched organoids [1]; Dose 0.40 uM", "result": 0.012, "unit": "log 2 fold change"}, {"measurement": "Z.LYZ.NS", "setting": "ISC-enriched organoids [1]; Dose 0.40 uM", "result": 0.104}, {"measurement": "Dose.FC.LYZ.NS", "setting": "ISC-enriched organoids [1]; Dose 2.00 uM", "result": 0.025, "unit": "log 2 fold change"}, {"measurement": "Z.LYZ.NS", "setting": "ISC-enriched organoids [1]; Dose 2.00 uM", "result": 0.217}, {"measurement": "Dose.FC.LYZ.NS", "setting": "ISC-enriched organoids [1]; Dose 10.00 uM", "result": "−0.038", "unit": "log 2 fold change"}, {"measurement": "Z.LYZ.NS", "setting": "ISC-enriched organoids [1]; Dose 10.00 uM", "result": "−0.333"}, {"measurement": "SSMD.LYZ.NS", "setting": "ISC-enriched organoids [1]; 1st of the 4 dose lines of the treatment (dose not given)", "result": 0.326}, {"measurement": "SSMD.LYZ.NS", "setting": "ISC-enriched organoids [1]; 2nd of the 4 dose lines of the treatment (dose not given)", "result": 0.108}, {"measurement": "SSMD.LYZ.NS", "setting": "ISC-enriched organoids [1]; 3rd of the 4 dose lines of the treatment (dose not given)", "result": 0.152}, {"measurement": "SSMD.LYZ.NS", "setting": "ISC-enriched organoids [1]; 4th of the 4 dose lines of the treatment (dose not given)", "result": "−0.330"}, {"measurement": "Dose.FC.CTG", "setting": "ISC-enriched organoids [2]; Dose 0.08 uM, primary screen", "result": "−0.150", "unit": "log 2 fold change"}, {"measurement": "Z.CTG", "setting": "ISC-enriched organoids [2]; Dose 0.08 uM, primary screen, standard z score", "result": "−0.357"}, {"measurement": "Dose.FC.CTG", "setting": "ISC-enriched organoids [2]; Dose 0.40 uM, primary screen", "result": 0.079, "unit": "log 2 fold change"}, {"measurement": "Z.CTG", "setting": "ISC-enriched organoids [2]; Dose 0.40 uM, primary screen, standard z score", "result": 0.188}, {"measurement": "Dose.FC.CTG", "setting": "ISC-enriched organoids [2]; Dose 2.00 uM, primary screen", "result": 0.056, "unit": "log 2 fold change"}, {"measurement": "Z.CTG", "setting": "ISC-enriched organoids [2]; Dose 2.00 uM, primary screen, standard z score", "result": 0.135}, {"measurement": "Dose.FC.CTG", "setting": "ISC-enriched organoids [2]; Dose 10.00 uM, primary screen", "result": "−0.034", "unit": "log 2 fold change"}, {"measurement": "Z.CTG", "setting": "ISC-enriched organoids [2]; Dose 10.00 uM, primary screen, standard z score", "result": "−0.082"}, {"measurement": "SSMD.CTG", "setting": "ISC-enriched organoids [2]; primary screen, 1st of the 4 dose lines of the treatment (dose not given)", "result": "−0.258"}, {"measurement": "SSMD.CTG", "setting": "ISC-enriched organoids [2]; primary screen, 2nd of the 4 dose lines of the treatment (dose not given)", "result": 0.254}, {"measurement": "SSMD.CTG", "setting": "ISC-enriched organoids [2]; primary screen, 3rd of the 4 dose lines of the treatment (dose not given)", "result": 0.194}, {"measurement": "SSMD.CTG", "setting": "ISC-enriched organoids [2]; primary screen, 4th of the 4 dose lines of the treatment (dose not given)", "result": "−0.097"}]}
{"compound": "CCN(CC)C(=O)/C(C#N)=C/c1cc(O)c(O)c([N+](=O)[O-])c1", "note": "[Entacapone]", "values": [{"measurement": "Z.CTG", "setting": "ISC-enriched organoids [2]; [3]", "result": "−0.275"}, {"measurement": "Z.CTG", "setting": "ISC-enriched organoids [2]; [4]", "result": "−0.154"}, {"measurement": "Z.CTG", "setting": "ISC-enriched organoids [2]; [5]", "result": 0.493}, {"measurement": "Z.CTG", "setting": "ISC-enriched organoids [2]; [6]", "result": "−0.935"}]}
{"compound": "CCCN[C@H]1CCc2nc(N)sc2C1", "note": "[Pramipexole]", "values": [{"measurement": "Z.CTG (standard z score)", "setting": "ISC-enriched organoids [2]; Dose 0.08 uM, primary screen", "result": 0.261}, {"measurement": "Z.CTG (standard z score)", "setting": "ISC-enriched organoids [2]; Dose 0.40 uM, primary screen", "result": 0.436}, {"measurement": "Z.CTG (standard z score)", "setting": "ISC-enriched organoids [2]; Dose 2.00 uM, primary screen", "result": 0.062}, {"measurement": "Z.CTG (standard z score)", "setting": "ISC-enriched organoids [2]; Dose 10.00 uM, primary screen", "result": 0.551}]}
{"compound": "COc1cc2c(cc1OC)CN(CCc1ccc(NC(=O)c3cc(OC)c(OC)cc3NC(=O)c3cnc4ccccc4c3)cc1)CC2", "note": "[Tariquidar]", "values": [{"measurement": "Z.CTG (standard z score)", "setting": "ISC-enriched organoids [2]; Dose 0.08 uM, primary screen", "result": "−0.280"}, {"measurement": "Z.CTG (standard z score)", "setting": "ISC-enriched organoids [2]; Dose 0.40 uM, primary screen", "result": 0.128}, {"measurement": "Z.CTG (standard z score)", "setting": "ISC-enriched organoids [2]; Dose 2.00 uM, primary screen", "result": 0.899}, {"measurement": "Z.CTG (standard z score)", "setting": "ISC-enriched organoids [2]; Dose 10.00 uM, primary screen", "result": 0.543}]}
{"compound": "CCCSc1nc(N[C@@H]2C[C@H]2c2ccc(F)c(F)c2)c2nnn([C@@H]3C[C@H](OCCO)[C@@H](O)[C@H]3O)c2n1", "note": "[Ticagrelor]", "values": [{"measurement": "Z.CTG (standard z score)", "setting": "ISC-enriched organoids [2]; dose 0.08 uM", "result": "−0.190"}, {"measurement": "Z.CTG (standard z score)", "setting": "ISC-enriched organoids [2]; dose 0.40 uM", "result": "−0.069"}, {"measurement": "Z.CTG (standard z score)", "setting": "ISC-enriched organoids [2]; dose 2.00 uM", "result": "−0.645"}, {"measurement": "Z.CTG (standard z score)", "setting": "ISC-enriched organoids [2]; dose 10.00 uM", "result": "−0.576"}]}
{"compound": "CC(C)N(CCCNC(=O)Nc1ccc(C(C)(C)C)cc1)C[C@H]1O[C@@H](n2cc(Br)c3c(N)ncnc32)[C@H](O)[C@@H]1O", "note": "[SGC0946]", "values": [{"measurement": "Z.CTG (standard z score)", "setting": "ISC-enriched organoids [2]; Dose 0.08 uM, primary screen", "result": 0.124}, {"measurement": "Z.CTG (standard z score)", "setting": "ISC-enriched organoids [2]; Dose 0.40 uM, primary screen", "result": "−0.290"}, {"measurement": "Z.CTG (standard z score)", "setting": "ISC-enriched organoids [2]; Dose 2.00 uM, primary screen", "result": "−0.197"}, {"measurement": "Z.CTG (standard z score)", "setting": "ISC-enriched organoids [2]; Dose 10.00 uM, primary screen", "result": "−0.340"}]}
{"compound": "COc1ccc(-n2nc(C(N)=O)c3c2C(=O)N(c2ccc(N4CCCCC4=O)cc2)CC3)cc1", "note": "[Apixaban]", "values": [{"measurement": "Z.CTG", "setting": "ISC-enriched organoids [2]; primary screen, dose 0.08 uM, standard z score of FC", "result": "−0.212"}, {"measurement": "Z.CTG", "setting": "ISC-enriched organoids [2]; primary screen, dose 0.40 uM, standard z score of FC", "result": 0.266}, {"measurement": "Z.CTG", "setting": "ISC-enriched organoids [2]; primary screen, dose 2.00 uM, standard z score of FC", "result": "−0.144"}, {"measurement": "Z.CTG", "setting": "ISC-enriched organoids [2]; primary screen, dose 10.00 uM, standard z score of FC", "result": "−0.185"}]}
{"compound": "COc1ccccc1N1CCN(CC(O)COc2cccc3ccccc23)CC1", "note": "(stereo not drawn) [Naftopidil]", "values": [{"measurement": "Z.CTG", "setting": "ISC-enriched organoids [2]; [3]", "result": "−0.093"}, {"measurement": "Z.CTG", "setting": "ISC-enriched organoids [2]; [4]", "result": "−0.384"}, {"measurement": "Z.CTG", "setting": "ISC-enriched organoids [2]; [5]", "result": "−0.426"}, {"measurement": "Z.CTG", "setting": "ISC-enriched organoids [2]; [6]", "result": "−0.316"}]}
{"compound": "CN[C@H]1CC[C@@H](c2ccc(Cl)c(Cl)c2)c2ccccc21", "note": "[Sertraline HCl]", "values": [{"measurement": "Z.CTG (standard z score)", "setting": "ISC-enriched organoids [2]; Dose 0.08 uM, primary screen", "result": "−0.189"}, {"measurement": "Z.CTG (standard z score)", "setting": "ISC-enriched organoids [2]; Dose 0.40 uM, primary screen", "result": 0.208}, {"measurement": "Z.CTG (standard z score)", "setting": "ISC-enriched organoids [2]; Dose 2.00 uM, primary screen", "result": 0.157}, {"measurement": "Z.CTG (standard z score)", "setting": "ISC-enriched organoids [2]; Dose 10.00 uM, primary screen", "result": 0.104}]}
{"compound": "Cc1cc(OCc2nnc(SC3CCCC3)n2-c2cccnc2)ccc1-c1ccc(S(C)(=O)=O)cc1", "note": "[NMS-873]", "values": [{"measurement": "Z.CTG", "setting": "ISC-enriched organoids [2]; [3]", "result": 0.416}, {"measurement": "Z.CTG", "setting": "ISC-enriched organoids [2]; [4]", "result": "−0.122"}, {"measurement": "Z.CTG", "setting": "ISC-enriched organoids [2]; [5]", "result": "−2.173"}, {"measurement": "Z.CTG", "setting": "ISC-enriched organoids [2]; [6]", "result": "−3.683"}]}
{"compound": "Oc1nc(-c2ccc(C(F)(F)F)cc2)nc2c1CSCC2", "note": "[XAV-939]", "values": [{"measurement": "Z.CTG (standard z score)", "setting": "ISC-enriched organoids [2]; dose 0.08 uM", "result": "−0.792"}, {"measurement": "Z.CTG (standard z score)", "setting": "ISC-enriched organoids [2]; dose 0.40 uM", "result": "−0.065"}, {"measurement": "Z.CTG (standard z score)", "setting": "ISC-enriched organoids [2]; dose 2.00 uM", "result": "−0.847"}, {"measurement": "Z.CTG (standard z score)", "setting": "ISC-enriched organoids [2]; dose 10.00 uM", "result": "−2.147"}]}
{"compound": "CCOC(=O)N1c2ccc(C(F)(F)F)cc2[C@@H](N(Cc2cc(C(F)(F)F)cc(C(F)(F)F)c2)C(=O)OC)C[C@H]1CC", "note": "[Torcetrapib]", "values": [{"measurement": "Z.CTG (standard z score)", "setting": "ISC-enriched organoids [2]; dose 0.08 uM", "result": 0.677}, {"measurement": "Z.CTG (standard z score)", "setting": "ISC-enriched organoids [2]; dose 0.40 uM", "result": 0.147}, {"measurement": "Z.CTG (standard z score)", "setting": "ISC-enriched organoids [2]; dose 2.00 uM", "result": "−0.289"}, {"measurement": "Z.CTG (standard z score)", "setting": "ISC-enriched organoids [2]; dose 10.00 uM", "result": "−0.360"}]}
